Data from ChEMBL document CHEMBL1201862, “PubChem BioAssay data set” (2004).
Values joined by “and” are separate entries in the source; they are usually repeats but may differ in a detail not shown here. Equal entries are not always repeated.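 Following 48 hours of exposure in 96-well plates, responses at five concentrations were used to interpolate endpoints linearly. GI50: concentration for 50% inhibition of growth.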 Active and inactive are the calls of the source. No stated cut-off is given here; in the data, active = GI50 up to about 1.1 µM and inactive = higher.

Assays:
Assay in all cases: growth of human tumour cells (NCI), 48 h
KM12 = system: KM12
NCI-H460 = system: NCI-H460
UACC-62 = system: UACC-62
M14 = system: M14
SK-MEL-5 = system: SK-MEL-5
EKVX = system: EKVX
OVCAR-4 = system: OVCAR-4
SN12C = system: SN12C
UACC-257 = system: UACC-257
A498 = system: A498
HCT-116 = system: HCT-116
SNB-75 = system: SNB-75
IGROV-1 = system: IGROV-1
COLO 205 = system: COLO 205
NCI-H23 = system: NCI-H23
SF-539 = system: SF-539
OVCAR-5 = system: OVCAR-5
MDA-MB-231 = system: MDA-MB-231
Hs-578T = system: Hs-578T
BT-549 = system: BT-549

| Structure (SMILES) | GI50 (KM12) | GI50 (NCI-H460) | GI50 (UACC-62) | GI50 (M14) | GI50 (SK-MEL-5) | GI50 (EKVX) | GI50 (OVCAR-4) | GI50 (SN12C) | GI50 (UACC-257) | GI50 (A498) | GI50 (HCT-116) | GI50 (SNB-75) | GI50 (IGROV-1) | GI50 (COLO 205) | GI50 (NCI-H23) | GI50 (SF-539) | GI50 (OVCAR-5) | GI50 (MDA-MB-231) | GI50 (Hs-578T) | GI50 (BT-549) |
| --- | --- | --- | --- | --- | --- | --- | --- | --- | --- | --- | --- | --- | --- | --- | --- | --- | --- | --- | --- | --- |
| CC(C)(C)N1CC2(CCCCC2)C1=O | > 100 µM (inactive) | > 100 µM (inactive) | > 100 µM (inactive) | > 100 µM (inactive) | > 100 µM (inactive) | > 100 µM (inactive) | > 100 µM (inactive) | > 100 µM (inactive) | > 100 µM (inactive) | > 100 µM (inactive) | > 100 µM (inactive) | > 100 µM (inactive) | > 100 µM (inactive) | > 100 µM (inactive) | > 100 µM (inactive) | > 100 µM (inactive) | > 100 µM (inactive) |  |  |  |
| CN1CCN2c3ccccc3CC(C#N)(C#N)C2C1 (stereo not given) | > 100 µM (inactive) | > 100 µM (inactive) | > 100 µM (inactive) | > 100 µM (inactive) | > 100 µM (inactive) | > 100 µM (inactive) | > 100 µM (inactive) | > 100 µM (inactive) | > 100 µM (inactive) | > 100 µM (inactive) | > 100 µM (inactive) | > 100 µM (inactive) | > 100 µM (inactive) | > 100 µM (inactive) | > 100 µM (inactive) | > 100 µM (inactive) | > 100 µM (inactive) |  |  |  |
| O=C(/C=C\c1ccc(Cl)c(Cl)c1)c1ccc(Cl)cc1Cl | 8.38 µM (inactive) | 23.3 µM (inactive) | 18.5 µM (inactive) | 21.9 µM (inactive) | 14.9 µM (inactive) | 23.4 µM (inactive) | 24.4 µM (inactive) | 24.9 µM (inactive) | 19.9 µM (inactive) | > 10 µM (inactive) | 9.14 µM (inactive) | 17.1 µM (inactive) | 18 µM (inactive) | > 10 µM (inactive) | 0.65 µM (active) | 20 µM (inactive) | > 10 µM (inactive) |  |  |  |
| COC(=O)C1=COC(C)C2CN3CCc4c([nH]c5cc(OC)c(OC)cc45)C3CC12 (stereo not given) |  |  | 99.8 µM (inactive) and 88.7 µM (inactive) | > 100 µM (inactive) and 65.9 µM (inactive) | 50.4 µM (inactive) and 36.8 µM (inactive) | 54.6 µM (inactive) and 72.8 µM (inactive) |  | > 100 µM (inactive) and 68.1 µM (inactive) | > 100 µM (inactive) | > 100 µM (inactive) and 87.7 µM (inactive) |  |  |  | 34.9 µM (inactive) and 29.9 µM (inactive) | 70.5 µM (inactive) and 37.6 µM (inactive) | > 100 µM (inactive) and 66.7 µM (inactive) | > 100 µM (inactive) | > 100 µM (inactive) | > 100 µM (inactive) and 54 µM (inactive) |  |
| CC(=O)C(=[N+]=[N-])C(=O)N(C)CCC#N | > 10 µM (inactive) | > 10 µM (inactive) | 3.58 µM (inactive) | > 10 µM (inactive) |  | > 10 µM (inactive) |  | > 10 µM (inactive) | > 10 µM (inactive) | > 10 µM (inactive) | > 10 µM (inactive) | 0.118 µM (active) | > 10 µM (inactive) |  | > 10 µM (inactive) | > 10 µM (inactive) | > 10 µM (inactive) | > 10 µM (inactive) |  | > 10 µM (inactive) |
| CC(C)=C1CCC(CN2CCCC2)C1=O (stereo not given) | 30.2 µM (inactive) | 58.7 µM (inactive) | > 100 µM (inactive) | 19.2 µM (inactive) | > 100 µM (inactive) | > 100 µM (inactive) | 17.1 µM (inactive) | 17.6 µM (inactive) | 24.7 µM (inactive) | > 100 µM (inactive) | 17.7 µM (inactive) | 55.2 µM (inactive) | 75.2 µM (inactive) |  | > 100 µM (inactive) | 53.7 µM (inactive) | 94.6 µM (inactive) |  |  |  |
| CC(=O)SCCC(NC(=S)Nc1ccccc1)P(=O)(Oc1ccccc1)Oc1ccccc1 (stereo not given) | > 100 µM (inactive) | > 100 µM (inactive) | > 100 µM (inactive) | > 100 µM (inactive) |  | > 100 µM (inactive) | > 100 µM (inactive) | > 100 µM (inactive) | > 100 µM (inactive) |  | > 100 µM (inactive) | > 100 µM (inactive) | > 100 µM (inactive) | > 100 µM (inactive) | > 100 µM (inactive) | > 100 µM (inactive) | > 100 µM (inactive) | > 100 µM (inactive) | > 100 µM (inactive) |  |
| Cc1c(Cl)cccc1NC(=O)c1cccc([N+](=O)[O-])c1O | 21.4 µM (inactive) | 8.81 µM (inactive) | 2.18 µM (inactive) | 16.8 µM (inactive) | 3.26 µM (inactive) | 16 µM (inactive) | 9.79 µM (inactive) | 14 µM (inactive) | 8.51 µM (inactive) | 14.2 µM (inactive) | 13.7 µM (inactive) | 17.5 µM (inactive) | 5.83 µM (inactive) | 14.1 µM (inactive) | 6.87 µM (inactive) | 15.7 µM (inactive) | > 43 µM (inactive) |  |  |  |
| Nc1nc(CCC(=O)Nc2cccc(C(F)(F)F)c2)cc(-c2cccc3ccccc23)n1 | > 100 µM (inactive) | > 100 µM (inactive) | > 100 µM (inactive) | > 100 µM (inactive) | > 100 µM (inactive) | > 100 µM (inactive) | > 100 µM (inactive) | > 100 µM (inactive) | > 100 µM (inactive) | > 100 µM (inactive) | > 100 µM (inactive) | > 100 µM (inactive) | > 100 µM (inactive) | > 100 µM (inactive) | > 100 µM (inactive) | > 100 µM (inactive) | > 100 µM (inactive) |  |  |  |
| CCOC1=NC(C(F)(F)F)(C(F)(F)F)N=C(N2CCCCC2)O1 | > 100 µM (inactive) | > 100 µM (inactive) | > 100 µM (inactive) | > 100 µM (inactive) | > 100 µM (inactive) | > 100 µM (inactive) | > 100 µM (inactive) | > 100 µM (inactive) | > 100 µM (inactive) | > 100 µM (inactive) | > 100 µM (inactive) | > 100 µM (inactive) | > 100 µM (inactive) | > 100 µM (inactive) | > 100 µM (inactive) | > 100 µM (inactive) | > 100 µM (inactive) | > 100 µM (inactive) | > 100 µM (inactive) |  |
| C=C1C(=O)O[C@H](c2ccoc2)C[C@@H]1[C@@]1(C)CCCC2(C)C(=O)OCC21 (stereo not given in full) | > 100 µM (inactive) | > 100 µM (inactive) | > 100 µM (inactive) | > 100 µM (inactive) | > 100 µM (inactive) | > 100 µM (inactive) | > 100 µM (inactive) | > 100 µM (inactive) | > 100 µM (inactive) | > 100 µM (inactive) | > 100 µM (inactive) | > 100 µM (inactive) | > 100 µM (inactive) | > 100 µM (inactive) | > 100 µM (inactive) | > 100 µM (inactive) | > 100 µM (inactive) |  |  |  |
| O=C1C(=O)N(c2cccc(C(F)(F)F)c2)C(=S)N1c1ccccc1 | 31.4 µM (inactive) | 2.32 µM (inactive) | 14.9 µM (inactive) |  | 17.9 µM (inactive) | 30.9 µM (inactive) | 41.1 µM (inactive) | 34.4 µM (inactive) | 25.8 µM (inactive) | 21.9 µM (inactive) | 31.7 µM (inactive) | 34.5 µM (inactive) | 22.4 µM (inactive) | 16.4 µM (inactive) | 25.5 µM (inactive) | 26.1 µM (inactive) | 30 µM (inactive) | 24.4 µM (inactive) | 27.9 µM (inactive) |  |
| SCc1ccc(CS)s1 | > 100 µM (inactive) | > 100 µM (inactive) | > 100 µM (inactive) | > 100 µM (inactive) | > 100 µM (inactive) | > 100 µM (inactive) | > 100 µM (inactive) | > 100 µM (inactive) | > 100 µM (inactive) |  | > 100 µM (inactive) | 68.5 µM (inactive) | > 100 µM (inactive) | > 100 µM (inactive) | > 100 µM (inactive) | > 100 µM (inactive) | > 100 µM (inactive) | > 100 µM (inactive) |  | > 100 µM (inactive) |
| O=C(CCc1cc(O)cc(O)c1)NCCCNC(=O)CCc1cc(O)cc(O)c1 | > 100 µM (inactive) |  | > 100 µM (inactive) | > 100 µM (inactive) | > 100 µM (inactive) | > 100 µM (inactive) | > 100 µM (inactive) | > 100 µM (inactive) | > 100 µM (inactive) | > 100 µM (inactive) | > 100 µM (inactive) |  | > 100 µM (inactive) | > 100 µM (inactive) | > 100 µM (inactive) | > 100 µM (inactive) | > 100 µM (inactive) | > 100 µM (inactive) |  | > 100 µM (inactive) |
| CC1=C(C(=O)Nc2ccccc2C)C(/C=C/c2ccccc2)C(C(=O)Nc2ccccc2C)=C(C)N1 | > 100 µM (inactive) | > 100 µM (inactive) | > 100 µM (inactive) | > 100 µM (inactive) | > 100 µM (inactive) | > 100 µM (inactive) | 96.4 µM (inactive) | > 100 µM (inactive) | > 100 µM (inactive) | 37.8 µM (inactive) | > 100 µM (inactive) | 33.5 µM (inactive) | > 100 µM (inactive) | > 100 µM (inactive) | > 100 µM (inactive) | > 100 µM (inactive) | > 100 µM (inactive) |  |  |  |
| O=C(O)/C(=C/c1ccccc1[N+](=O)[O-])c1cccs1 | > 100 µM (inactive) | > 100 µM (inactive) | > 100 µM (inactive) | > 100 µM (inactive) | > 100 µM (inactive) | > 100 µM (inactive) | > 100 µM (inactive) | > 100 µM (inactive) | > 100 µM (inactive) | > 100 µM (inactive) | > 100 µM (inactive) | > 100 µM (inactive) | > 100 µM (inactive) | > 100 µM (inactive) | > 100 µM (inactive) | > 100 µM (inactive) | > 100 µM (inactive) |  |  |  |
